This is an account of results in patent publication US8470828B2, “Anellated pyridine compounds” (Hoffmann-La Roche Inc., priority 2010, dated 2013).

The target of series [1] is T1, human D2 receptor (Homo sapiens, UniProt P14416).
T1 construct: expressed in transfected cells; host or cells: HEK293 EBNA cells, transient transfection; membrane preparation
The series can be described thus: Radioligand binding to cloned human D2 receptor expressed in HEK-293 EBNA cells ([3H]-spiperone). As to conditions: HEK293 EBNA cell membranes, approximately 0.7 nM [3H]-spiperone, 1 h at RT.

In series [2] the target is human D3 receptor (Homo sapiens, UniProt P35462). In words: Radioligand binding to cloned human D3 receptor expressed in HEK-293 EBNA cells ([3H]-spiperone).
Sequence of human D3 receptor (P35462 whole entry): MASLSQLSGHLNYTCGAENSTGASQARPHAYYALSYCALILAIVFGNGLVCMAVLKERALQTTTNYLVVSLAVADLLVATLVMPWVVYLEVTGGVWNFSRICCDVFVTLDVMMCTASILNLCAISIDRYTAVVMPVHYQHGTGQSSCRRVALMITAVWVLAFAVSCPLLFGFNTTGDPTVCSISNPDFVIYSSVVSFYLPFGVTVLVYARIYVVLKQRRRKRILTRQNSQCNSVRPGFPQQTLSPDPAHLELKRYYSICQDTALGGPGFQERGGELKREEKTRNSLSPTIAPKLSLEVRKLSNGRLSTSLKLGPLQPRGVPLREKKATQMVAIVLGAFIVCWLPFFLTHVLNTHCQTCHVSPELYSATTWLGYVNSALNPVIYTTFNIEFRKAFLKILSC
Series [3] deals with human 5-HT2A receptor (Homo sapiens, UniProt P28223). The series can be described thus: Radioligand binding to cloned human 5-HT2A receptor expressed in HEK-293 EBNA cells ([3H]-ketanserin).
Sequence of human 5-HT2A receptor (P28223 whole entry): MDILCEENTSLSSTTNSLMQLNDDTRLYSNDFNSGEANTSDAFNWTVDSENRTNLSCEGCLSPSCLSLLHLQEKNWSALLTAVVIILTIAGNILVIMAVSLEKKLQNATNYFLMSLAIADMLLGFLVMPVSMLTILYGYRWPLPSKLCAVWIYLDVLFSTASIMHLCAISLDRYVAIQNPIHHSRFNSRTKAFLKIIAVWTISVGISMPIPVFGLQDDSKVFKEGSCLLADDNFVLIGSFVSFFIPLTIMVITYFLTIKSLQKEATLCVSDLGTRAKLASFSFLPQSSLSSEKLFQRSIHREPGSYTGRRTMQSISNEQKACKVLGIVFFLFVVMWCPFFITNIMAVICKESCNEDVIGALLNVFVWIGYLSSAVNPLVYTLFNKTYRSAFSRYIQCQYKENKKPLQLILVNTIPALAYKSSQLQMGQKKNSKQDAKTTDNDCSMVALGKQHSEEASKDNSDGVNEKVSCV
Description: HEK293 EBNA cells were transiently transfected with expression plasmids encoding for the human D2 or D3 or for the human 5-HT2A receptor, respectively. The cells were harvested 48 h post-transfection, washed three times with cold PBS and stored at −80° C. prior to use. The pellet was suspended in cold 50 mM Tris-HCl buffer comprising 10 mM EDTA (pH 7.4) and was homogenized with a Polytron (Kinematica A G, Basel, Switzerland) for 20-30 sec at 12.000 rpm. After centrifugation at 48.000×g for 30 min at 4° C., the pellet was resuspended in cold 10 mM Tris-HCl buffer comprising 0.1 mM EDTA (pH 7.4), homogenized, and centrifuged as above. This pellet was further resuspended in a smaller volume of ice cold 10 mM Tris-HCl buffer comprising 0.1 mM EDTA (pH 7.4) and homogenized with a Polytron for 20-30 sec at 12.000 rpm. The protein content of this homogenate was determined with the Bio-Rad (Bradford) Protein Assay (Biorad Laboratories GmbH, München, Germany) according to the instructions of the manufacturer using gamma globulin as the standard. This homogenate was stored at −80° C. in aliquots and thawed immediately prior to use.
Aliquots of membrane preparations were thawed at RT, resupended in assay buffer (D2, D3: 50 mM Tris-HCl, 120 mM NaCl, 5 mM MgCl2, 1 mM EDTA, 5 mM KCl, 1.5 mM CaCl2, pH=7.4; 5-HT2A: 50 mM Tris-HCl, 10 mM MgCl2, 1 mM EGTA, pH=7.4), homogenized with a Polytron for 20-30 sec at 12.000 rpm and adjusted to a final concentration of approximately 7.5 μg protein/well (D2, D3) and 15 μg protein/well (5-HT2A), respectively.
The binding affinity (Ki) of the compounds was determined using radioligand binding. Membranes were incubated in a total volume of 200 μl with a fixed concentration of radioligand (final concentration approximately 0.7 nM [^3H]-spiperone for D2, 0.5 nM [^3H]-spiperone for D3, and 1.1 nM [^3H]-ketanserin for 5-HT2A) and ten concentrations of test compound in ranging between 10 μM-0.1 nM for 1 h at RT. At the end of the incubation, the reaction mixtures were filtered on to unifilter 96-well white microplates with bonded GF/C filters (Packard BioScience, Zürich, Switzerland; preincubated for 1 h in 0.1% polyethylenimine (PEI) in assay buffer) with a Filtermate 196 harvester (Packard BioScience) and washed 3 times with cold assay buffer. The nonspecific binding was determined with equally composed reaction mixtures in the presence of 10 μM unlabelled spiperone. Per well 45 μl of Microscint 40 (Perkin Elmer, Schwerzenbach, Switzerland) was added, plates for sealed, shaken for 20 min and counted for 3 min on a Topcount Microplate Scintillation Counter (Can berra Packard S A, Zürich, Switzerland) with quenching correction.
The CPM value for each duplicate of a concentration of competing compound was averaged (y1), then the % specific binding was calculated according to the equation (((y1−non-specific)/(total binding−non-specific))×100). Graphs were plotted with the % specific binding using XLfit, a curve fitting program that iteratively plots the data using Levenberg-Marquardt algorithm. The single site competition analysis equation used was y=A+((B−A)/(1+((x/C)D))), where y is the % specific binding, A is the minimum y, B is the maximum y, C is the IC50, x is the log 10 of the concentration of the competing compound and D is the slope of the curve (the Hill Coefficient). […] The affinity constant (Ki) was calculated using the Cheng-Prusoff equation Ki=(IC50/1+([L]/Kd), where [L] is the concentration of radioligand and Kd is the dissociation constant of the radioligand at the receptor as determined by the saturation isotherm.

T1 sequence (P14416 whole entry): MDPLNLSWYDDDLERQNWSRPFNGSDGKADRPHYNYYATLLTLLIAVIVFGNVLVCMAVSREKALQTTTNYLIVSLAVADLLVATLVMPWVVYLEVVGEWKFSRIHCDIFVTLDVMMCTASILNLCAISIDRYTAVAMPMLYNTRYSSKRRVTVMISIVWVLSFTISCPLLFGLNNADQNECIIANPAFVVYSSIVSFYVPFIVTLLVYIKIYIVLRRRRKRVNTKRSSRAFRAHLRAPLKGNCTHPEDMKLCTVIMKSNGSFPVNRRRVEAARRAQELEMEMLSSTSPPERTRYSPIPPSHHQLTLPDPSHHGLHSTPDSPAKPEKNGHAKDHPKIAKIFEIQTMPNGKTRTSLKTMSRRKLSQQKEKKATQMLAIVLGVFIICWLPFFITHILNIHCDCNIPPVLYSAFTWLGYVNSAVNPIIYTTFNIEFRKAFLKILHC

For `O=C(C[C@@H]1COCCO1)N[C@H]1CC[C@H](CCN2CCN(c3nccc4c3OCC4)CC2)CC1` [Example 35, trans-N-(4-{2-[4-(2,3-Dihydro-furo[2,3-c]pyridin-7-yl)-piperazin-1-yl]-ethyl}-cyclohexyl)-2-(R)-[1,4]dioxan-2-yl-acetamide], the melting point – broadly, the temperature, or range, at which the solid turns liquid – was determined as 181 °C. For the same compound, the Ki (commonly a dissociation constant, usually derived from enzyme kinetics or from competition with a known ligand) in series [1] worked out at 384 nM. Moreover, in series [2], the Ki was found to be 8.28 nM. The Ki in series [3] amounted to 36.1 nM.

The compound `O=C(N[C@H]1CC[C@H](CCN2CCN(c3nccc4c3OCC4)CC2)CC1)C1CC1` [Example 36, trans-Cyclopropanecarboxylic acid (4-{2-[4-(2,3-dihydro-furo[2,3-c]pyridin-7-yl)-piperazin-1-yl]-ethyl}-cyclohexyl)-amide] showed a melting point of 193 °C. This compound also came in with a Ki in series [1] of 102 nM. The compound also showed a Ki in series [2] of 7.49 nM. In series [3], this compound gave a Ki of 32.3 nM.

Regarding `CC(C)C(=O)N[C@H]1CC[C@H](CCN2CCN(c3nccc4c3OCC4)CC2)CC1` [Example 37, trans-N-(4-{2-[4-(2,3-Dihydro-furo[2,3-c]pyridin-7-yl)-piperazin-1-yl]-ethyl}-cyclohexyl)-isobutyramide], the melting point is 203.5 °C. In series [1], this compound gave a Ki of 265 nM. In addition, in series [2], the Ki is 7.25 nM. The same compound yielded a Ki in series [3] of 34.8 nM.

Consider `O=C(N[C@H]1CC[C@H](CCN2CCN(c3nccc4c3OCC4)CC2)CC1)c1ccc(N2CCOCC2)cc1` [Example 38, trans-N-(4-{2-[4-(2,3-Dihydro-furo[2,3-c]pyridin-7-yl)-piperazin-1-yl]-ethyl}-cyclohexyl)-4-morpholin-4-yl-benzamide], for which the melting point came to 241.5 °C. The same compound came in with a Ki in series [1] of 2280 nM. The compound further yielded a Ki in series [2] of 15.5 nM. This compound had a Ki in series [3] of 16.6 nM.

As to `O=C(N[C@H]1CC[C@H](CCN2CCN(c3nccc4c3OCC4)CC2)CC1)c1ccnc2ccccc12` [Example 39, Quinoline-4-carboxylic acid trans-(4-{2-[4-(2,3-dihydro-furo[2,3-c]pyridin-7-yl)-piperazin-1-yl]-ethyl}-cyclohexyl)-amide], the melting point is 222 °C. Also, the “D2 Ki” value in series [1] is “inactive”. Also, the Ki in series [2] is 6.22 nM. Moreover, the Ki in series [3] worked out at 21.9 nM.

Compound `O=C(N[C@H]1CC[C@H](CCN2CCN(c3nccc4c3OCC4)CC2)CC1)c1ccc(F)cc1` [Example 40, trans-N-(4-{2-[4-(2,3-Dihydro-furo[2,3-c]pyridin-7-yl)-piperazin-1-yl]-ethyl}-cyclohexyl)-4-fluoro-benzamide] returned a melting point of 235.5 °C. The Ki in series [1] stood at 1650 nM. In addition, the Ki in series [2] came to 8.93 nM. The compound also came in with an inhibition constant (Ki) in series [3] of 22.1 nM.

`CN(C)C(=O)CCC(=O)N[C@H]1CC[C@H](CCN2CCN(c3nccc4c3OCC4)CC2)CC1` [Example 41, trans-N-(4-{2-[4-(2,3-Dihydro-furo[2,3-c]pyridin-7-yl)-piperazin-1-yl]-ethyl}-cyclohexyl)-N′,N′-dimethyl-succinamide]: the melting point came to 177.5 °C. The Ki in series [1] stood at 2350 nM. Besides, the affinity in series [2], expressed as Ki, was 33.4 nM. For the same compound, in series [3], the affinity, expressed as Ki, was 63.8 nM.

Regarding `CC(C)CCC(=O)N[C@H]1CC[C@H](CCN2CCN(c3nccc4c3OCC4)CC2)CC1` [Example 42, trans-4-Methyl-pentanoic acid (4-{2-[4-(2,3-dihydro-furo[2,3-c]pyridin-7-yl)-piperazin-1-yl]-ethyl}-cyclohexyl)-amide], the melting point came to 175 °C. The Ki in series [1] is 879 nM. This compound also returned a Ki in series [2] of 15.5 nM. This compound returned a Ki in series [3] of 44.4 nM.

`Cc1cc(CC(=O)N[C@H]2CC[C@H](CCN3CCN(c4nccc5c4OCC5)CC3)CC2)on1` [Example 43, trans-N-(4-{2-[4-(2,3-Dihydro-furo[2,3-c]pyridin-7-yl)-piperazin-1-yl]-ethyl}-cyclohexyl)-2-(3-methyl-isoxazol-5-yl)-acetamide] displayed a melting point of 222.5 °C. In series [1], this compound registered a Ki of 3710 nM. In series [2], this compound returned a Ki of 2.68 nM. The same compound gave a Ki in series [3] of 41.2 nM.

In turn, `O=C(N[C@H]1CC[C@H](CCN2CCN(c3nccc4c3OCC4)CC2)CC1)C1(O)CC1` [Example 44, 1-Hydroxy-cyclopropanecarboxylic acid trans-(4-{2-[4-(2,3-dihydro-furo[2,3-c]pyridin-7-yl)-piperazin-1-yl]-ethyl}-cyclohexyl)-amide] displayed a melting point of 248.5 °C. In addition, in series [1], the affinity corresponds to a Ki of 793 nM. The same compound yielded a Ki in series [2] of 16.8 nM. In addition, the affinity in series [3], expressed as Ki, was 9.91 nM.

`CCCC(=O)N[C@H]1CC[C@H](CCN2CCN(c3nccc4c3OCC4)CC2)CC1` [Example 45, trans-N-(4-{2-[4-(2,3-Dihydro-furo[2,3-c]pyridin-7-yl)-piperazin-1-yl]-ethyl}-cyclohexyl)-butyramide] yielded a melting point of 183 °C. In series [1], this compound returned a Ki of 731 nM. In series [2], the Ki was found to be 10.1 nM. In series [3], the Ki came out at 50.1 nM.

For the compound `CC(C)(O)CC(=O)N[C@H]1CC[C@H](CCN2CCN(c3nccc4c3OCC4)CC2)CC1` [Example 46, trans-N-(4-{2-[4-(2,3-Dihydro-furo[2,3-c]pyridin-7-yl)-piperazin-1-yl]-ethyl}-cyclohexyl)-3-hydroxy-3-methyl-butyramide], the melting point was found to be 139 °C. Affinity in series [1] was put at a Ki of 904 nM. The affinity in series [2], expressed as Ki, was 14 nM. The affinity in series [3] corresponds to a Ki of 49.6 nM.

On to `O=C(C[C@@H](O)C(F)(F)F)N[C@H]1CC[C@H](CCN2CCN(c3nccc4c3OCC4)CC2)CC1` [Example 47, trans-(R)—N-(4-{2-[4-(2,3-Dihydro-furo[2,3-c]pyridin-7-yl)-piperazin-1-yl]-ethyl}-cyclohexyl)-4,4,4-trifluoro-3-hydroxy-butyramide], for which the melting point turned out to be 214.5 °C. The Ki in series [1] came to 943 nM. Further, the affinity in series [2], expressed as Ki, was 15 nM. In series [3], this compound had a Ki of 89 nM.

The compound `CC[C@H](O)CC(=O)N[C@H]1CC[C@H](CCN2CCN(c3nccc4c3OCC4)CC2)CC1` [Example 48, trans-(S)-3-Hydroxy-pentanoic acid (4-{2-[4-(2,3-dihydro-furo[2,3-c]pyridin-7-yl)-piperazin-1-yl]-ethyl}-cyclohexyl)-amide] gave a melting point of 217 °C. The Ki in series [1] came to 1090 nM. Moreover, the Ki in series [2] turned out to be 18.2 nM. The compound further had a Ki in series [3] of 56.8 nM.

`O=C(CCO)N[C@H]1CC[C@H](CCN2CCN(c3nccc4c3OCC4)CC2)CC1` [Example 49, trans-N-(4-{2-[4-(2,3-Dihydro-furo[2,3-c]pyridin-7-yl)-piperazin-1-yl]-ethyl}-cyclohexyl)-3-hydroxy-propionamide] displayed a melting point of 257 °C. This compound yielded an inhibition constant (Ki) in series [1] of 723 nM. The compound also gave a Ki in series [2] of 10.4 nM. This compound also yielded a Ki in series [3] of 82.3 nM.

On to `O=C(N[C@H]1CC[C@H](CCN2CCN(c3nccc4c3OCC4)CC2)CC1)C(F)(F)F` [Example 50, trans-N-(4-{2-[4-(2,3-Dihydro-furo[2,3-c]pyridin-7-yl)-piperazin-1-yl]-ethyl}-cyclohexyl)-2,2,2-trifluoro-acetamide], for which the melting point is 198.5 °C. For the same compound, the Ki in series [1] came out at 551 nM. This compound gave a Ki in series [2] of 29.5 nM. Further, the Ki in series [3] stood at 45.7 nM.

`CCCCC(=O)N[C@H]1CC[C@H](CCN2CCN(c3nccc4c3OCC4)CC2)CC1` [Example 51, Pentanoic acid trans-(4-{2-[4-(2,3-dihydro-furo[2,3-c]pyridin-7-yl)-piperazin-1-yl]-ethyl}-cyclohexyl)-amide] showed a melting point of 168 °C. This compound yielded a Ki in series [1] of 726 nM. This compound displayed a Ki in series [2] of 10.4 nM. In series [3], this compound gave a Ki of 50.3 nM.

The compound `CO[C@H]1CC[C@H](CC(=O)N[C@H]2CC[C@H](CCN3CCN(c4nccc5c4OCC5)CC3)CC2)C1` [Example 52, trans-N-(4-{2-[4-(2,3-Dihydro-furo[2,3-c]pyridin-7-yl)-piperazin-1-yl]-ethyl}-cyclohexyl)-2-((1S,3S)-3-methoxy-cyclopentyl)-acetamide] returned a melting point of 199 °C. Further, the Ki in series [1] amounted to 948 nM. Besides, in series [2], the Ki was determined as 13.4 nM. Besides, the Ki in series [3] stood at 44 nM.

`O=CN[C@H]1CC[C@H](CCN2CCN(c3nccc4c3OCC4)CC2)CC1` [Example 53, trans-N-(4-{2-[4-(2,3-Dihydro-furo[2,3-c]pyridin-7-yl)-piperazin-1-yl]-ethyl}-cyclohexyl)-formamide]: the melting point came to 153.5 °C. Moreover, the affinity in series [1] corresponds to a Ki of 1110 nM. In addition, the Ki in series [2] was determined as 23.1 nM. This compound displayed a Ki in series [3] of 70.2 nM.

As for `O=C(N[C@H]1CC[C@H](CCN2CCN(c3nccc4c3OCC4)CC2)CC1)c1ccc(Cl)cc1` [Example 54, trans-4-Chloro-N-(4-{2-[4-(2,3-dihydro-furo[2,3-c]pyridin-7-yl)-piperazin-1-yl]-ethyl}-cyclohexyl)-benzamide], the melting point was found to be 251.5 °C. Besides, the inhibition constant Ki in series [1] came to 2390 nM. In series [2], the Ki was found to be 12.6 nM. For the same compound, the Ki in series [3] was 66.7 nM.

Consider `O=C(N[C@H]1CC[C@H](CCN2CCN(c3nccc4c3OCC4)CC2)CC1)c1ccc(C(F)(F)F)cc1` [Example 55, trans-N-(4-{2-[4-(2,3-Dihydro-furo[2,3-c]pyridin-7-yl)-piperazin-1-yl]-ethyl}-cyclohexyl)-4-trifluoromethyl-benzamide], for which the melting point was 242.5 °C. Moreover, the “D2 Ki” value in series [1] was “inactive”. The same compound registered a Ki in series [2] of 51.5 nM. In series [3], this compound came in with an inhibition constant (Ki) of 78.7 nM.

The compound `CC(C)(C)c1ccc(C(=O)N[C@H]2CC[C@H](CCN3CCN(c4nccc5c4OCC5)CC3)CC2)cc1` [Example 56, trans-4-tert-Butyl-N-(4-{2-[4-(2,3-dihydro-furo[2,3-c]pyridin-7-yl)-piperazin-1-yl]-ethyl}-cyclohexyl)-benzamide] yielded a melting point of 183 °C. Besides, the Ki in series [1] worked out at 1930 nM. The Ki in series [2] was found to be 79.5 nM. Moreover, in series [3], the Ki came out at 67.4 nM.
